Measurements taken from patent US20230128194A1, “METHODS AND COMPOSITIONS TO ALTER HEPATIC GABA RELEASE TO TREAT OBESITY-RELATED CONDITIONS” (ARIZONA BOARD OF REGENTS ON BEHALF OF THE UNIVERSITY OF …, priority 2017, published 2023).

Target: T1, BGT1 (Mus musculus, UniProt P31651)
T1 construct: from tissue; host or cells: mouse liver slices
T1 sequence (P31651 1-614): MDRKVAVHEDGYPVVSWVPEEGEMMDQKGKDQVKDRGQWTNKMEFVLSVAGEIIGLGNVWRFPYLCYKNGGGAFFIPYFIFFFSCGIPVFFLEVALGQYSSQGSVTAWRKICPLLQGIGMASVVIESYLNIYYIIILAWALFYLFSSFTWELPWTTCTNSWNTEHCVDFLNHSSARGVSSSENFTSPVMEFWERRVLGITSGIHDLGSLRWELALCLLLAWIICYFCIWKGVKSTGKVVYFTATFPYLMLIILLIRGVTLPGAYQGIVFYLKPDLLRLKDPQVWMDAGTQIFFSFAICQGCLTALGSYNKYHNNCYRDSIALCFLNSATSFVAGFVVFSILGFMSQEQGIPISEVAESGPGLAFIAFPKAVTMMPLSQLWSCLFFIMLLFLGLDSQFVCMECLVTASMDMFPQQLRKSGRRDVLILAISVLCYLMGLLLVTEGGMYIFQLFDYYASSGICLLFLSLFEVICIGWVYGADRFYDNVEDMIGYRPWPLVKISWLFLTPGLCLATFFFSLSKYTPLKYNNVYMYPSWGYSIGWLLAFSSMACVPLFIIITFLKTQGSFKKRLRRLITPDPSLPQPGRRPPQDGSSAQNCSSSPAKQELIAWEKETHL
Assay: liver slice media GABA with BGT1 inhibitor
Assay type: cell-based
Details: liver slices, 1 mM
From the text: Two liver slices were taken from each mouse.

media GABA concentrations: increases
Structure (SMILES): C[N+](C)(C)CC(=O)O [betaine]
